One block for each molecule: values may come before it.
How the values were obtained:
[1] = Dose proportionality (linearity) test by power model for C max and AUC0-last; settings: for Dose proportionality test using power model, Inference: linear when 90% CI of β included 1, CIlower ≥0.8, and CIupper ≤1.25; for Dose proportionality test using power model, β: rikkunshito 2.5, 5.0 or 7.5 g
Description: The dose proportionality was analyzed via a power model [21, 22]. […] Evaluation of linearity of the dosage-exposure relationship was conducted with Phoenix WinNonlin and SAS 9.2 (SAS Institute, Inc., Cary, NC).

[2] = Randomized crossover quantitative trial: plasma pharmacokinetics of nine ingredients after rikkunshito 2.5, 5.0 or 7.5 g; settings: for AUC(0-t) / Cmax / Tmax / half-life: human, plasma, po; for AUC(0-t): AUC0-last; for AUC(0-t) / Cmax / half-life / t 1/2: geometric mean (95% CI); for Cmax: C max; for Tmax: Median t max (range); for Tmax / Median t max (range): median (minimum–maximum)
Text: The first trial was a nonrandomized, open-label, one-period design. The second trial was a randomized, open-label, three-arm, three-period design (Fig 1). With respect to inclusion criteria, the studies included healthy Japanese adults between 20 and 45 years of age with a body mass index between 18 and 25 who were willing and able to comply with the study requirements. Exclusion criteria for this study included a history of significant liver, heart, or vessel disease and consumption of supplements that contained any rikkunshito ingredients or any drug within 3 days to 1 week before the first dose. Other standard exclusion criteria included relevant allergies, pregnant or nursing females, and any alcohol or nicotine use. The sample size was set as more than 15 based on the Ministry of Health, Labour and Welfare’s guidelines. Subjects allocated to a screening test were randomized to one of three groups by the central allocation system (allocation ratio 1:1:1). A random sequence was generated using a computer. The safety endpoint was evaluated in all volunteers. This endpoint was defined on the basis of a physician’s judgement after examination or observation that a serious adverse event had occurred. Adverse events included death, a life-threatening event, an event requiring hospitalization for treatment or an extended stay in hospital, an event resulting in permanent or temporary disability or dysfunction, an event resulting in a congenital abnormality, or any other serious medical phenomenon. With respect to side effects, no specific conditions were defined, and all adverse events for which no causal relationship with the drug could be excluded were deemed to be side effects. In each stage during the 48-h period following rikkunshito administration, the physician monitored the patient for subjective symptoms, objective findings, swelling, body temperature (axillary), blood pressure (sitting), and pulse (sitting). The physician also conducted a hematological examination to measure the patient’s red blood cell, leucocyte and platelet counts, hemoglobin level, and hematocrit value. A biochemical examination was conducted to determine total protein, blood urea nitrogen, creatinine, uric acid, aspartate aminotransferase, alanine aminotransferase, total bilirubin, alkaline phosphatase, γ-glutamyltranspeptidase albumin, prothrombin time, total cholesterol, C-reactive protein, and potassium to identify any abnormalities in comparison with the subject’s condition prior to administration. All participants fasted for 12 h before administration and 4 h after administration of the study drug.
In the second quantitative trial, 12-mL blood samples were collected at 0 (preadministration), 0.25, 0.5, 1, 2, 3, 4, 6, 8, 10, 12, 24, and 48 h after a single oral administration of rikkunshito (Lot H05142). A total of 3 daily doses were used in this trial, i.e., the clinical dose per administration (2.5 g) as the lowest dose, the clinical daily dose (7.5 g) as the highest dose, and an intermediate dose (5.0 g), to broadly discuss the pharmacokinetic characteristics of the ingredients measured. The trial participants were hospitalized overnight on the day they ingested rikkunshito, and returned home the following day after blood samples were collected at the 24-h time point. The participants returned to the hospital to provide blood samples at 48 h. The blood was immediately centrifuged at 1700 ×g for 15 min to obtain plasma. Plasma fractions were stored at −20°C or lower until analysis.
Plasma, urine, and rikkunshito formulation samples were analyzed for rikkunshito ingredients concentrations using a liquid chromatography–mass spectrometry with tandem mass spectrometer assay (LC–MS/MS; API5000, Triple Quad 6500, or QTRAP5500; AB Sciex, Tokyo, Japan) or gas chromatography–mass spectrometry. Further information of analytical methods can be found at S1 Appendix.

[3] = biological target: T1, GHS-R (Homo sapiens, UniProt Q92847); experiment: Ghrelin/GHS-R binding activity, radioligand binding using GHS-R-expressing cells (S1 Fig); settings: n = 3, S1 Fig
T1 construct: host or cells: GHS-R-expressing cells (printed 'GSH-R-expressing cells')
Description: Supplementary file pone.0133159.s004.tif: S1 Fig Effect of atractylodin and atractylodin carboxylic acid on ghrelin/GHS-R binding activity. Radioligand binding was performed using GSH-R-expressing cells (n = 3). (TIF) Click here for additional data file.

[4] = Exploratory trial: ingredients in β-glucuronidase (enzyme)-treated urine; type: in vivo, human; settings: human, in vivo
Description: (§1) In the first exploratory trial, 20-mL blood samples were collected from the cutaneous vein in the subjects’ forearm via a blood sampling tube that contained heparin at 0 (preadministration), 0.5, 1, 2, 4, and 8 h after a single oral administration of rikkunshito (Lot E24652). The dose of rikkunshito used in this trial was 7.5 g/day, which is the clinical daily dose, to widely explore rikkunshito-derived ingredients that enter the blood. Along with plasma, urine samples were collected at three points: between dinner and bedtime (preadministration), between 0 and 4 h after administration, and between 4 and 8 h after administration. The blood was immediately centrifuged at 1700 ×g for 10 min to obtain plasma. Plasma and urine fractions were stored at −80°C or lower until analysis.
(§2) For quantification of 30 ingredients other than atractylodin and synephrine, 25 µL of standard solution or methanol was added to 500 µL plasma or urine samples followed by mixing. Atractylenolide III or digoxin (IS) solution (50 μL) was added to the solutions followed by mixing. For urine, 400 µL of blank plasma was added to the solutions. Ammonium acetate solution (100 mM, 100 or 400 µL) was added to the solutions followed by mixing. For enzymatic treatment, plasma and urine samples were incubated with β-glucuronidase (100 units in 100 mM ammonium acetate) for 2 h at 37°C. A solid-phase cartridge (OASIS HLB, 30 mg/1cc, Waters) was conditioned with methanol and 10 mM ammonium acetate solution, and the samples were loaded onto the cartridge. The cartridge was washed water : methanol (9:1, v/v), and 1.5 mL of methanol and 30 µL of propylene glycol were added to the cartridge to elute the analytes. The mixtures were dried at 25°C under a stream of nitrogen gas. Furthermore, 100 μL of 10 mM ammonium acetate : methanol (8:2, v/v) was added to the dried samples followed by mixing and sonication. The solutions were filtered (0.22 µm) and followed by injection into the LC–MS/MS system. […] Those analytical conditions are summarized in S2 Table and S3 Table.

[5] = Exploratory trial: amount of rikkunshito ingredients in urine; type: in vivo, human
Outline: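 Subjects took single oral 7.5 g rikkunshito; urine collected pre-dose and 0–4 h and 4–8 h post-dose, stored at −80 °C or lower. Synephrine quantified by LC–MS/MS after plate cleanup with erythromycin IS; other ingredients after β-glucuronidase (2 h, 37 °C) and HLB solid-phase extraction.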

[6] = system: 5-HT2BR; set-up: method as in PMID 18439428; settings: cited from earlier work
[7] = Exploratory trial: plasma concentration of rikkunshito ingredients after single oral rikkunshito 7.5 g; type: in vivo; settings: 0–8 h; rikkunshito 7.5 g; untreated plasma; BQL = below the quantification limit
Outline: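 Healthy volunteers took a single oral rikkunshito dose of 7.5 g. Heparinized forearm blood was drawn at 0, 0.5, 1, 2, 4 and 8 h, with urine pooled pre-dose, 0–4 h and 4–8 h. Analytes were quantified in plasma by LC–MS/MS with internal standards, after solid-phase extraction and, where applied, 2 h β-glucuronidase treatment at 37°C.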

[8] = system: 5-HT2CR; set-up: method as in PMID 18439428; settings: cited from earlier work
[9] = Stability of ingredients in gastric pH solution (pH 1.2, 37°C); type: physicochemical
Description: Rikkunshito gradually dissolved in acidic solution (pH 1.2) at 37°C, and the concentration of atractylodin after adding 0.25, 0.5, 1, and 2 h was measured by gas chromatography–mass spectrometry.

[10] = Exploratory trial: ingredients in β-glucuronidase (enzyme)-treated plasma; type: in vivo, human; settings: in vivo
Description: as §1, §2

[11] = system: ghrelin secretion; settings: cited from earlier work
[12] = Formation of ingredients derived from rikkunshito in formulation, blood, and urine (S11 Table summary); settings: after rikkunshito administration, per ingredient in the formulation
[13] = system: cisplatin-induced anorexia model; settings: cited from earlier work
[14] = of the ingredient in the formulation; summary table, reference not given; cited from earlier work
[15] = 2.5 g, rikkunshito 2.5 g single oral, n = 21
[16] = 5 g, rikkunshito 5.0 g single oral, n = 19
[17] = 7.5 g, rikkunshito 7.5 g single oral, n = 19
[18] = rikkunshito 7.5 g single oral, n = 19
[19] = rikkunshito 7.5 g single oral, n = 19, listed as atractylodin carboxylic acid
[20] = oral administration at a dose of 4.0 mg/kg

T1 sequence (Q92847 whole entry, species assumed): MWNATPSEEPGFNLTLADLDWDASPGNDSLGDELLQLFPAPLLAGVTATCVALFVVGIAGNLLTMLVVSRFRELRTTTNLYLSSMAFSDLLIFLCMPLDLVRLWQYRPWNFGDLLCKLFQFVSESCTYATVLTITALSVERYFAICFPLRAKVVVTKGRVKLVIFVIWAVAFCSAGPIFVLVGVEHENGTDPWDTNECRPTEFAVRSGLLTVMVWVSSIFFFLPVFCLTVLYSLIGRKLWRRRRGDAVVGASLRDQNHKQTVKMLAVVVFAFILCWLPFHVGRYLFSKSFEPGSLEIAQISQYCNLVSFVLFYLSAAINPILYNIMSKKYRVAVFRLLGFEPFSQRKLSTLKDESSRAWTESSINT

Dose proportionality test using power model, Inference ([1]; AUC0-last): Linear
Dose proportionality test using power model, β ([1]; AUC0-last): 1.08
Dose proportionality test using power model, Inference ([1]; Cmax): Linear
Dose proportionality test using power model, β ([1]; Cmax): 1.05
C max of metabolite relative to unchanged form (atractylodin) ([2]; after administration of 7.5 g rikkunshito): 5.7–31.5 fold
AUC(0-t) [2, 15]: 3.91 ng·h/mL
Cmax [2, 15]: 4.45 ng/mL
Tmax [2, 15]: 15 min
half-life ([2]; 2.5 g, t 1/2, rikkunshito 2.5 g single oral, n = 21): 34.8 min
AUC(0-t) [2, 16]: 8.74 ng·h/mL
Cmax [2, 16]: 9.57 ng/mL
Tmax [2, 16]: 15 min
half-life ([2]; 5 g, t 1/2, rikkunshito 5.0 g single oral, n = 19): 38.2 min
AUC(0-t) [2, 17]: 12.7 ng·h/mL
Cmax [2, 17]: 14.3 ng/mL
t 1/2 [2, 18]: 0.663 (0.560–0.790) h
t 1/2 [2, 19]: < 10 h
Median t max (range) [2, 18]: 0.250 (0.250–0.500) h
Median t max (range) [2, 19]: ≤ 1 h
Ghrelin/GHS-R binding (ghrelin signal enhancement) activity compared with atractylodin [3]: as potent as atractylodin
Structure (SMILES): O=C(O)/C=C/C#CC#C/C=C/c1ccco1 [Atractylodin carboxylic acid]

Structure (SMILES): COc1ccc([C@@H]2CC(=O)c3c(O)cc(O)cc3O2)cc1O [Hesperetin]
Amount in enzyme-treated urine, 0–4 h [4]: 7130 ± 9290 ng
Amount in enzyme-treated urine, 4–8 h [4]: 56750 ± 37530 ng
Amount in enzyme-treated urine, Pre [4]: 4290 ± 7690 ng
Increase of urine concentration after β-glucuronidase treatment compared with before treatment [4]: more than 10 fold
Amount in urine, Pre ([5]; human, in vivo): 213 ± 390 ng
Amount in urine, 0–4 h ([5]; human, in vivo, po): 462 ± 418 ng
5-HT2BR inhibitory/antagonistic activity [6]: inhibit
Plasma concentration at all time points [7]: BQL
5-HT2CR inhibitory activity [8]: inhibit
Stability in gastric pH solution, Quantitative value ([9]; 0.5 h, pH 1.2): 4.38 ng/mL
Stability in gastric pH solution, Quantitative value ([9]; 1 h, pH 1.2): 4.36 ng/mL
Stability in gastric pH solution, Quantitative value ([9]; 2 h, pH 1.2): 3.90 ng/mL
Cmax ([10]; human): 0.799 ng/mL
concentration at 2 h ([10]; human): 0.227 ± 0.264 ng/mL
concentration at 4 h ([10]; human): 0.799 ± 0.408 ng/mL
concentration at 8 h ([10]; human): 0.307 ± 0.289 ng/mL
Plasma concentration in enzyme-treated plasma, 0 h [10]: BQL
Plasma concentration in enzyme-treated plasma, 0.5 h [10]: BQL
Plasma concentration in enzyme-treated plasma, 1 h [10]: BQL
Known pharmacology activities: ghrelin secretion [11]: Ghrelin secretion promoting activity [14, 15]

Structure (SMILES): COc1ccc([C@@H]2CC(=O)c3c(O)cc(O[C@@H]4O[C@H](CO[C@@H]5O[C@@H](C)[C@H](O)[C@@H](O)[C@H]5O)[C@@H](O)[C@H](O)[C@H]4O)cc3O2)cc1O [Hesperidin]
Amount in urine, 0–4 h ([5]; 0–4 h after single oral rikkunshito 7.5 g, mean ± S.D., n = 4): 184 ± 60.5 ng
Amount in urine, 4–8 h ([5]; 4–8 h after single oral rikkunshito 7.5 g, mean ± S.D., n = 4): 68.6 ± 47.9 ng
Amount in urine, Pre ([5]; preadministration (between dinner and bedtime), mean ± S.D., n = 4): 28.9 ± 57.8 ng
Formation of ingredients: form found in Blood [12]: Conjugate metabolites of hesperetin
Formation of ingredients: form found in Urine ([12]; BQL = below the quantification limit): Hesperidin Hesperetin Conjugate metabolites of hesperetin
Stability in gastric pH solution, Quantitative value ([9]; rikkunshito in acidic solution (pH 1.2) at 37°C, 0.5 h): 2860 ng/mL
Stability in gastric pH solution, Quantitative value ([9]; rikkunshito in acidic solution (pH 1.2) at 37°C, 1 h): 3130 ng/mL
Stability in gastric pH solution, Quantitative value ([9]; rikkunshito in acidic solution (pH 1.2) at 37°C, 2 h): 2570 ng/mL
Appetite following cisplatin administration [13, 20]: improves decreased appetite
Plasma ghrelin concentration following cisplatin administration [13, 20]: inhibits a decrease in plasma ghrelin concentration
Acylated ghrelin level in blood ([13]; oral administration, cisplatin-induced anorexia model): suppressed the decrease of the acylated ghrelin level in blood in a concentration-dependent manner
Metabolite by enterobacterium [14]: Hesperetin

From article PMC4506051, “Pharmacokinetic Profiles of Active Ingredients and Its Metabolites Derived from Rikkunshito, a Ghrelin Enhancer, in Healthy Japanese Volunteers: A Cross-Over, Randomized Study” (PLoS ONE, 2015)
